For assay [1], the target named is HIV-1 TAR. As to conditions: known binder of HIV-1 TAR; cited from earlier work.
Assay [2] concerns HIV-1 TAR. Description: Ramp experiments (unfolding/refolding force) on HIV-TAR RNA. It is filed as binding. As to conditions: for effect on unfolding force: adding increasing concentrations. From the text:
In a ramp experiment, the nucleic acid (e.g., RNA) molecules are subjected to multiple cycles of slowly increasing and/or decreasing force, and the value at which the molecule unfolds or refolds can be determined from a sudden change in the bead's position. Upon binding, a ligand can cause a change in the unfolding or refolding force if it stabilizes or destabilizes the RNA structure.
A 59-nucleotide HIV-TAR RNA flanked by RNA/DNA duplexes was attached to a paramagnetic bead on one side and the flowcell on the other end.
To investigate whether the platform can distinguish between different KD, three additional small molecules were used that are known to bind to the HIV-1 TAR structure with varying binding affinities (FIG. 2C-2E). […] Above 100 μM of Kanamycin, there is a widening of the force distribution (FIG. 2D).

Assay [3] relates to wild type (WT) Bsu preQ1 riboswitch. Nature of the assay: Step constant-force experiments on WT preQ1 riboswitch. Type of assay: binding. From the text: In a Constant-Force Experiment, the nucleic acid molecules are subjected to the same force for a certain amount of time before it is increased in a stepwise manner. The equilibrium force is the point at which the molecule spends equal time in both folded and unfolded states. Ligand binding at this force can cause a change in the dynamics of folding and unfolding.
(§1) To study the molecular dynamics of the preQ1 riboswitch using the platform described herein, wild type (WT) Bsu riboswitch was attached to the flowcell as described in Example 1. A step constant-force experiments were then performed, where the molecule is kept at a constant force for a given amount of time before increasing the force in a stepwise manner from lower to higher forces (FIG. 3B). The z position of the bead was recorded and at forces closer to equilibrium, the molecule transitioned between the folded and unfolded state (FIG. 3B). The force was maintained constant for five minutes at the equilibrium force (where the molecule spends as much time in the unfolded versus folded state) and various concentrations of the preQ1 ligand were tested. The binding of the ligand to the structure (arrows shown in representative binding analysis curve of FIG. 3C) was monitored in real time and at the level of the single molecule. A binding which causes the structure to remain in the folded state for more than 3 seconds was recorded. The kon calculated by dividing the number of events observed when the ligand is bound to the RNA structure over the time of experiment at a given concentration of the ligand. The RNA is considered bound to a ligand (here preQ1 ligand) when it stays folded for longer than 3.3 seconds. By testing different concentrations, the kon of the molecule was measured (FIG. 3D). The koff is inverse of the length of time when the RNA structure is bound by a ligand. Accordingly, a duration, when the ligand left the RNA structure (star) as the RNA structure went back to rapid transition between folded and unfolded state, was observed. The duration of this folded state allows to measure the koff of the ligand (FIG. 3E). The kon is dependent on the ligand concentration whereas the koff is not. For each force, the raw data was fitted to two different states using Hidden Markov model (FIG. 3B), and the fraction of time for which each molecule is present at the folded state was calculated over the time at each force step. The fraction was plotted against the force for each step, and the equilibrium force (inflection point) was determined for each molecule when the molecule spent 50% of the time at each state (FIG. 3F). The half-width of the force can also be determined by calculating 1/e (e=Euler's number) on either side of the inflection point, which indicates the force range where the molecule is bistable and transitions from folded and unfolded state (FIG. 3F). The transition frequency was calculated for each of the force steps recorded and plotted again the normalized force, corresponding to the equilibrium force for each bead in control conditions (FIG. 3G).
For the subsequent experiments, 1 mM Mg^2+ was added in all buffers.
To study the effect of preQ1 ligand binding to the riboswitch, constant-force step experiments were performed with increasing concentration of preQ1 ligand (FIG. 3B).

The test system of assay [4] is preQ1 riboswitch U6C mutant. To be noted: U6C versus WT; basis for selecting the mutant; cited from earlier work.
In assay [5] the test system is preQ1 riboswitch. Nature of the assay: Long constant-force experiments at 9.6 pN on preQ1 riboswitch. It is filed as binding, Bsu. The method, then: as §1, with “The koff is inverse of the length of time when the RNA structure is bound by a ligand. Accordingly, a duration, when the ligand left the RNA structure (star) as the RNA structure went back to rapid transition between folded and unfolded state, was observed. The duration of this folded state allows to measure the koff of the ligand (FIG. 3E). The kon is dependent on the ligand concentration whereas the koff is not.” left out, “The transition frequency was calculated for each of the force steps recorded and plotted again the normalized force, corresponding to the equilibrium force for each bead in control conditions (FIG. 3G).” left out

In assay [6] the target is preQ1 riboswitch U7C + C15U mutant. Description: Ramp analysis, U7C + C15U double mutant preQ1 riboswitch. As to conditions: fit of high-force fraction. Type of assay: binding, Bsu. From the text:
(§2) The preQ1 riboswitch has several point substitutions that modify affinity to the preQ1 ligand (FIG. 4A).
(§3) Having established a reference point, the four different mutants were used to study the effect on preQ1 binding (FIG. 4C-4G). […] The difference could be due to the Mg^2+ used. Nonetheless, the platform was able to distinguish a 3-fold differences in KD, which is less apparent in platforms like SPR or fluorescent titration.

Assay [7] deals with preQ1 riboswitch U7C + C15U mutant. As to conditions: U7C + C15U versus wt; basis for selecting the mutant; cited from earlier work.
Assay [8] relates to preQ1 riboswitch A10G mutant. Nature of the assay: Ramp analysis, A10G mutant preQ1 riboswitch. Type of assay: binding, Bsu.
Source text: as §2
With this mutant, the whole distribution was shifted towards higher forces, instead of having two different fractions (FIG. 4E). […] The constant-force step experiment also reflected the changes in the equilibrium force in micromolar range (FIG. 4F).

Assay [9] concerns preQ1 riboswitch A10G mutant. To be noted: A10G versus wt; basis for selecting the mutant; cited from earlier work.
Assay [10] has as its system preQ1 riboswitch U6C mutant. Nature of the assay: Ramp analysis, U6C mutant preQ1 riboswitch. Type of assay: binding, Bsu. As to conditions: no KD from fitting maximum density or high-force density.
Source text: as §2

Assay [11] has as its target preQ1 riboswitch C15U mutant. Description: Ramp analysis, C15U mutant preQ1 riboswitch. As to conditions: fit of high-force fraction. Type of assay: binding, Bsu.
Source text: as §2, §3

In the next assay the target is WT preQ1 riboswitch. Description: Ramp analysis, WT preQ1 riboswitch. To be noted: fit of high-force fraction. It is filed as binding, Bsu. Here is the method: The WT preQ1 riboswitch was used as a reference (FIG. 4B). […] The peak around the reference force decreased while there was an increase in the proportion of cycles that have a higher unfolding force. The higher force cycles can represent the binding of the ligand and formation of the pseudoknot. The fraction of cycles that have an unfolding force greater than 95% confidence interval of each bead was calculated in control conditions (FIG. 4B). […] This is similar to the KD calculated in Example 2 from the constant force experiment at 9.6 pN.

Assay [12] relates to preQ1 riboswitch C15U mutant. To be noted: C15U versus wt; basis for selecting the mutant; cited from earlier work.
In assay [13] the target is preQ1 riboswitch. To be noted: comparison result obtained by smFRET; cited from earlier work.
For another assay, the system named is pre-miR-21-bp mutant. Nature of the assay: Dicer binding to pre-miR-21-bp mutant. To be noted: 20 nM full-length Dicer without magnesium; mutation abolishes bulge. The method, then: (§4) Pre-miR-21 and pre-miR-21-bp mutants are used as substrates to measure the effect of Dicer on the folding kinetics. Dicer is a double-strand-specific ribonuclease that binds the pre-miRNAs and cleaves them to generate mature miRNAs. Adding 20 nM of full-length Dicer without magnesium causes the binding of the protein to the structure without further processing of the structure. […] Therefore, the platform described herein is useful for detecting interaction between an RNA scaffold and an RNA binding protein.

A further assay deals with pre-miR-21. Description: Dicer binding to pre-miR-21 (unfolding force). To be noted: 20 nM full-length Dicer without magnesium. Here is the method: as §4
[14] abbreviates: fit of changes in unfolding force, ramp experiments, read-out: calculated KD.
[15] abbreviates: 1 μM preQ1 ligand, lesser extent than 1 mM Mg^2+.
The mark [16] stands for this setting: increasing concentrations of preQ1, 1 mM Mg^2+ in buffers.

Where two headings read alike, the source gives them in different places.

A word on the Kd: it is the concentration at which binding is half-saturated. In general, Ki refers to a dissociation constant, usually derived from enzyme kinetics or from competition with a known ligand.

Consider `Cc1ccc2c(N)c(C(=O)Nc3cccc(C(F)(F)F)c3)sc2n1` [Compound 4, 3-Amino-6-methyl-N-(3-(trifluoromethyl)phenyl)thieno[2,3-b]pyridine-2-carboxamide], for which the Kd was 2.4 µM at HIV-1 TAR [1] and 2.99 µM at HIV-1 TAR [2] (setting [14]). Further, the “effect on unfolding force” value in the assay with HIV-1 TAR [2] is “decrease in the unfolding force”.

Take `[Mg+2]` [Mg^2+]: in [3] (1 mM Mg^2+ alone, no ligand), the “effect on transition frequency at equilibrium force” value is given as “transition frequency decreased” and the “effect on unfolding equilibrium force” value is “increased the unfolding equilibrium force”.

Take `CCN[C@@H]1C[C@H](N)[C@@H](O[C@H]2OC(CN)=CC[C@H]2N)[C@H](O)[C@H]1O[C@H]1OC[C@](C)(O)[C@H](NC)[C@H]1O` [Netilmicin]: at HIV-1 TAR [1], the Kd was 1.4 µM and the Ki was approximately 14 µM. In the assay on HIV-1 TAR [2], the “effect on unfolding force” value is listed as “increase in the unfolding force”. Further, the Kd on HIV-1 TAR [2] (setting [14]) is approximately 13.4 µM.

With `N=C(N)NCCC[C@H](N)C(N)=O` [argininamide], the “effect on unfolding and refolding force” value with HIV-1 TAR [2] (10 mM) was “increased both the unfolding and refolding force”. In addition, the “effect on unfolding force” value in the assay on HIV-1 TAR [2] was “increased the unfolding force”. The Kd on HIV-1 TAR [2] (fit of normalized force at maximum unfolding distribution for each bead, read-out: KD) was 5430 µM.

On to `NCc1c[nH]c2nc(N)[nH]c(=O)c12` [preQ1], for which the “Effect of mutation on binding affinity” value in assay [4] is recorded as “Abolished versus WT”; in assay [7] it was “Greatly Increase versus wt”; in assay [9], “Decrease versus wt”; in [12], “Increase versus wt”. The Kon with preQ1 riboswitch [5] (9.6 pN, fit of attachment rate) is 0.0015 ^−1 nM^−1. Moreover, the Koff in the assay on preQ1 riboswitch [5] (9.6 pN, one per mean time of ligand-bound event) was 0.11 s⁻¹. The Kd is 0.073 µM at preQ1 riboswitch [5] (calculated by Koff/Kon); 0.0177 µM in assay [6]; 34.7 µM in assay [8] (A10G, fit of maximum unfolding force density for each bead); 0.162 µM in assay [3] (fit of equilibrium force at each concentration); 0.00535 µM in assay [11]; 0.0878 µM on WT preQ1 riboswitch. In addition, at preQ1 riboswitch [13], the equilibrium dissociation constant (Kd) is 0.134 µM. The “increase in KD compared with WT” value in assay [8] (A10G versus WT) is approximately 400 fold. In addition, in assay [3] (1 μM preQ1 ligand plus 1 mM Mg^2+), the “effect of ligand and cation together” value is listed as “additive effect”. Further, the entries for the “effect on transition frequency” value in assay [3] (setting [15]) and in assay [3] (setting [16]) were “decreased transition frequency” and “decreased the transition frequency”, respectively. Further, the “effect on unfolding equilibrium force” value in assay [3] (setting [15]) is listed as “increased the unfolding equilibrium force”. Further, the “effect on equilibrium force” value in assay [3] (setting [16]) is “increased equilibrium force”. Also, the ligand binding entry in [10] was “abolished the ligand binding”.

On to “Dicer: double-strand-specific ribonuclease that binds the pre-miRNAs and cleaves them to generate mature miRNAs”, for which the binding to mutant result with pre-miR-21-bp mutant is “does not occur”. Also, the “effect of binding on unfolding force” value with pre-miR-21 is reported as “increase in the unfolding force”.

The record behind these values is patent US12117442B2, “Methods of screening compounds” (Depixus SAS, priority 2022, dated 2024).
